Results: patent US20220249404A1 (Nanjing Ruiying Runze Biopharmaceutical Technology Co., Inc., priority 2019, published 2022)
Like-named read-outs stand apart in the source and are kept apart here.

Columns and labels:
zebrafish [1] = assay: melanin content / effective rate on melanogenesis in zebrafish (NaOH lysis method); format: in vivo; details: for efficacy of Flu (%): calculated using Formula 1; for efficacy of Cal (%): calculated using Formula 3
tyrosinase = tyrosinase activity of zebrafish (L-DOPA oxidation method); format: in vivo
normal mice = details: oral administration, 20 mg/kg; cited from earlier work
C57BL/6 mice = details: oral administration, 2.6 mg/kg, stress-induced; cited from earlier work
B16F10 cells = details: cited from earlier work
[2] = system: normal human skin melanocytes; details: cited from earlier work
[3] = long term oral administration, 20 mg/day; cited from earlier work
zebrafish [4] = assay: survival rate of zebrafish (PTU35h embryos, drugs alone or in combination); details: for effect on survival rate of zebrafish: used alone; for IC50: Danio rerio, 25 h, read-out: IC50 (survival rate of zebrafish)
normal melanocytes = details: 10^−9-10^−5 mol/L; cited from earlier work
zebrafish [5] = details: in vivo
[6] = 0.2 mM PTU35h treatment group compared with normal control group
[7] = 0.005-1.28 μg/ml, compared with PTU35h treatment group

SMILES: CNCCC(Oc1ccc(C(F)(F)F)cc1)c1ccccc1 (racemic) [fluoxetine]
- melanin content in zebrafish (zebrafish [1]; 6.4-25.6 μg/ml, compared with PTU35h treatment group): increase the melanin content in zebrafish in a dose-dependent manner
- effective rate (%) on melanogenesis in zebrafish (zebrafish [1]; Flu alone 0.1 μg/ml): 4.962%
- effective rate (%) on melanogenesis in zebrafish (zebrafish [1]; Flu alone 0.1 μg/ml, listed as Flu): 4.5%
- effective rate (%) on melanogenesis in zebrafish (zebrafish [1]; Flu alone 0.4 μg/ml): 6.564%
- effective rate (%) on melanogenesis in zebrafish (zebrafish [1]; Flu alone 1.6 μg/ml): 10.260%
- effective rate (%) on melanogenesis in zebrafish (zebrafish [1]; Flu alone 1.6 μg/ml, listed as Flu): 10.26%
- effective rate (%) on melanogenesis in zebrafish (zebrafish [1]; Flu alone 6.4 μg/ml): 25.804%
- effective rate (%) on melanogenesis in zebrafish (zebrafish [1]; Flu alone 25.6 μg/ml): 26.536%
- efficacy of Flu (%) (zebrafish [1]; listed as Flu 0.1 μg/ml): 3.151%
- efficacy of Flu (%) (zebrafish [1]; listed as Flu 0.4 μg/ml): 3.218%
- efficacy of Flu (%) (zebrafish [1]; listed as Flu 1.6 μg/ml): 3.486%
- efficacy of Flu (%) (zebrafish [1]; listed as Flu 6.4 μg/ml): 4.547%
- efficacy of Flu (%) (zebrafish [1]; listed as Flu 25.6 μg/ml): 8.629%
- tyrosinase activity of zebrafish (tyrosinase; 1.6-25.6 μg/ml, compared with PTU35h treatment group): increase the tyrosinase activity of zebrafish in a dose-dependent manner
- skin coloring (normal mice): can promote skin coloring
- skin discoloration of unhaired back (C57BL/6 mice): can improve skin discoloration
- synthesis (melanin) of B16F10 cells (B16F10 cells): can promote
- melanin of normal human skin melanocytes [2]: can promote
- side effects [3]: may cause side effects, such as insomnia, lethargy, suicide, neurological disorders
- effect on survival rate of zebrafish (zebrafish [4]; 100 μg/ml): significantly inhibited

SMILES: NC(=S)Nc1ccccc1 [PTU, 1-phenyl-2-thiourea]
- melanin content in zebrafish (zebrafish [1]; [6]): decreased significantly
- tyrosinase activity of zebrafish (tyrosinase; [6]): decreased significantly

SMILES: C=C1CC[C@H](O)C/C1=C/C=C1\CCC[C@]2(C)[C@@H]([C@H](C)CCCC(C)C)CC[C@@H]12 [VD3, vitamin D3]
- efficacy of VD3 (%) (zebrafish [1]; VD3 0.02 μg/ml, calculated using Formula 2): 3.72%
- efficacy of VD3 (%) (zebrafish [1]; VD3 0.08 μg/ml, calculated using Formula 2): 5.41%
- efficacy of VD3 (%) (zebrafish [1]; VD3 0.32 μg/ml, calculated using Formula 2): 11.07%
- efficacy of VD3 (%) (zebrafish [1]; VD3 1.28 μg/ml, calculated using Formula 2): 15.74%
- effective rate (%) on melanogenesis in zebrafish (zebrafish [1]; used alone 0.02 μg/ml): 5.564%
- effective rate (%) on melanogenesis in zebrafish (zebrafish [1]; used alone 0.08 μg/ml): 7.337%
- effective rate (%) on melanogenesis in zebrafish (zebrafish [1]; used alone 0.32 μg/ml): 10.315%
- effective rate (%) on melanogenesis in zebrafish (zebrafish [1]; used alone 1.28 μg/ml): 15.775%
- effective rate (%) on melanogenesis in zebrafish (zebrafish [1]; zebrafish, in vivo): 3.346%
- efficacy of VD3 (%) (zebrafish [1]; zebrafish, in vivo): 3.28%
- melanin content in zebrafish (zebrafish [1]; zebrafish, in vivo): no significant difference
- tyrosinase activity of zebrafish (tyrosinase; [7]): no significant effect
- effect on survival rate of zebrafish (zebrafish [4]; 5 μg/ml): significantly inhibited

SMILES: C=C1/C(=C\C=C2/CCC[C@]3(C)[C@@H]([C@H](C)/C=C/[C@@H](O)C4CC4)CC[C@@H]23)C[C@@H](O)C[C@@H]1O [calcipotriol]
- efficacy of Cal (%) (zebrafish [1]; Cal 0.005 μg/ml): 3.42%
- efficacy of Cal (%) (zebrafish [1]; Cal 0.02 μg/ml): 3.85%
- efficacy of Cal (%) (zebrafish [1]; Cal 0.08 μg/ml): 5.50%
- efficacy of Cal (%) (zebrafish [1]; Cal 0.32 μg/ml): 10.77%
- efficacy of Cal (%) (zebrafish [1]; Cal 1.28 μg/ml): 11.17%
- effective rate (%) on melanogenesis in zebrafish (zebrafish [1]; used alone 0.005 μg/ml): 4.296%
- effective rate (%) on melanogenesis in zebrafish (zebrafish [1]; used alone 0.02 μg/ml): 5.509%
- effective rate (%) on melanogenesis in zebrafish (zebrafish [1]; used alone 0.08 μg/ml): 6.773%
- effective rate (%) on melanogenesis in zebrafish (zebrafish [1]; used alone 0.32 μg/ml): 10.214%
- effective rate (%) on melanogenesis in zebrafish (zebrafish [1]; used alone 1.28 μg/ml): 11.197%
- tyrosinase activity of zebrafish (tyrosinase; [7]): no significant effect
- melanogenesis of normal melanocytes (normal melanocytes): can promote melanogenesis
- effect on survival rate of zebrafish (zebrafish [4]; 5 μg/ml): significantly inhibited
- IC50 (zebrafish [4]): 3.5 µg/mL

SMILES: C=C1/C(=C\C=C2/CCC[C@]3(C)[C@@H]([C@H](C)CC[C@@H](O)C(C)C)CC[C@@H]23)C[C@@H](O)C[C@@H]1O [tacalcitol]
- effect on survival rate of zebrafish (zebrafish [5]): significantly inhibited
- IC50 (zebrafish [4]): 4 µg/mL
